Results from PubChem BioAssay (NCI).
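The compound was tested at five concentrations on cells cultured in 96-well plates, with a 48-hour exposure period. TGI: total growth inhibition.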

How the values were obtained:
Assay in all cases: growth of human tumour cells (NCI), 48 h
IGROV1 ovarian = system: IGROV1 ovarian
A498 renal = system: A498 renal
HCC-2998 colon = system: HCC-2998 colon
TK-10 renal = system: TK-10 renal
BT-549 breast = system: BT-549 breast
NCI/ADR-RES ovarian = system: NCI/ADR-RES ovarian
SN12C renal = system: SN12C renal
UACC-257 melanoma = system: UACC-257 melanoma
MCF7 breast = system: MCF7 breast
OVCAR-3 ovarian = system: OVCAR-3 ovarian
SR leukemia = system: SR leukemia
LOX IMVI melanoma = system: LOX IMVI melanoma
HOP-92 NSCLC = system: HOP-92 NSCLC
MDA-MB-435 = system: MDA-MB-435
M14 melanoma = system: M14 melanoma
SF-295 CNS = system: SF-295 CNS
CCRF-CEM leukemia = system: CCRF-CEM leukemia
MDA-N = system: MDA-N
NCI-H23 lung = system: NCI-H23 lung
T-47D breast = system: T-47D breast
CAKI-1 renal = system: CAKI-1 renal
SNB-75 CNS = system: SNB-75 CNS
KM12 colon = system: KM12 colon
786-0 renal = system: 786-0 renal
NCI-H460 lung = system: NCI-H460 lung
SK-MEL-2 melanoma = system: SK-MEL-2 melanoma
OVCAR-4 ovarian = system: OVCAR-4 ovarian
SW-620 colon = system: SW-620 colon
U251 CNS = system: U251 CNS
OVCAR-8 ovarian = system: OVCAR-8 ovarian
MOLT-4 leukemia = system: MOLT-4 leukemia
HOP-62 NSCLC = system: HOP-62 NSCLC
SF-539 CNS = system: SF-539 CNS
K-562 leukemia = system: K-562 leukemia
HCT-15 colon = system: HCT-15 colon
HL-60(TB) leukemia = system: HL-60(TB) leukemia
NCI-H522 lung = system: NCI-H522 lung
HCT-116 colon = system: HCT-116 colon
UO-31 renal = system: UO-31 renal
SF-268 CNS = system: SF-268 CNS
RPMI-8226 leukemia = system: RPMI-8226 leukemia
ACHN renal = system: ACHN renal
HT29 colon = system: HT29 colon
A549 NSCLC = system: A549 NSCLC
SNB-19 CNS = system: SNB-19 CNS
OVCAR-5 ovarian = system: OVCAR-5 ovarian
RXF 393 renal = system: RXF 393 renal
SK-MEL-28 melanoma = system: SK-MEL-28 melanoma
PC-3 prostate = system: PC-3 prostate
SK-MEL-5 melanoma = system: SK-MEL-5 melanoma
HS 578T breast = system: HS 578T breast
NCI-H226 lung = system: NCI-H226 lung
EKVX NSCLC = system: EKVX NSCLC
DU-145 prostate = system: DU-145 prostate
MDA-MB-231 breast = system: MDA-MB-231 breast

## O=C1/C(=C/c2ccccc2[N+](=O)[O-])N=C(c2ccccc2)N1c1nc2ccccc2s1
IGROV1 ovarian
  TGI: 33.7 µM
A498 renal
  TGI: 72.1 µM
HCC-2998 colon
  TGI: 43.1 µM
TK-10 renal
  TGI: > 100 µM
BT-549 breast
  TGI: 49.4 µM
NCI/ADR-RES ovarian
  TGI: 39.5 µM
SN12C renal
  TGI: 64.3 µM
UACC-257 melanoma
  TGI: > 100 µM
MCF7 breast
  TGI: 90.4 µM
OVCAR-3 ovarian
  TGI: 51.9 µM
SR leukemia
  TGI: 34.3 µM
LOX IMVI melanoma
  TGI: 56.8 µM
HOP-92 NSCLC
  TGI: 52.1 µM
MDA-MB-435
  TGI: 54.1 µM
M14 melanoma
  TGI: > 100 µM
SF-295 CNS
  TGI: > 100 µM
CCRF-CEM leukemia
  TGI: 0.681 µM
MDA-N
  TGI: 71.9 µM
NCI-H23 lung
  TGI: 41.4 µM
T-47D breast
  TGI: 76.6 µM
CAKI-1 renal
  TGI: > 100 µM
SNB-75 CNS
  TGI: 64.6 µM
KM12 colon
  TGI: 43.5 µM
786-0 renal
  TGI: 58.8 µM
NCI-H460 lung
  TGI: > 100 µM
SK-MEL-2 melanoma
  TGI: > 100 µM
OVCAR-4 ovarian
  TGI: 51 µM
SW-620 colon
  TGI: > 100 µM
U251 CNS
  TGI: > 100 µM
OVCAR-8 ovarian
  TGI: 39.7 µM
MOLT-4 leukemia
  TGI: 34.7 µM
HOP-62 NSCLC
  TGI: 72.2 µM
SF-539 CNS
  TGI: 81.3 µM
K-562 leukemia
  TGI: 44.7 µM
HCT-15 colon
  TGI: 56.8 µM
HL-60(TB) leukemia
  TGI: 57.1 µM
NCI-H522 lung
  TGI: 40.1 µM
HCT-116 colon
  TGI: 38.5 µM
UO-31 renal
  TGI: > 100 µM
SF-268 CNS
  TGI: 60.4 µM
RPMI-8226 leukemia
  TGI: 61.6 µM
ACHN renal
  TGI: 82.1 µM
HT29 colon
  TGI: > 100 µM
A549 NSCLC
  TGI: > 100 µM
SNB-19 CNS
  TGI: > 100 µM
OVCAR-5 ovarian
  TGI: > 100 µM
RXF 393 renal
  TGI: 33.7 µM
SK-MEL-28 melanoma
  TGI: > 100 µM
PC-3 prostate
  TGI: > 100 µM
SK-MEL-5 melanoma
  TGI: > 100 µM
HS 578T breast
  TGI: 62.4 µM
NCI-H226 lung
  TGI: > 100 µM
EKVX NSCLC
  TGI: > 100 µM
DU-145 prostate
  TGI: 47.6 µM
MDA-MB-231 breast
  TGI: > 100 µM
